From US7282512B2, “Cycloalkyl ketoamides derivatives useful as cathepsin K inhibitors” (SmithKline Beecham Corporation, priority 2002, dated 2007)

Key:
human cathepsin K = target: T1, human cathepsin K (Homo sapiens, UniProt P43235); assay: cathepsin K inhibition assay, fluorogenic substrate Cbz-Phe-Arg-AMC, progress curve method; assay type: biochemical; conditions: Table 1; human recombinant enzyme, pH 5.5, 30° C., 10 μM substrate; read-out: hcatK Ki
T1 construct: The proform of cathepsin K was converted to mature cathepsin K by brief exposure to pH 4; made in house; host or cells: baculovirus; Trichoplusia ni High Five cells (virus raised in Sf-9)
T1 sequence (P43235 115-329): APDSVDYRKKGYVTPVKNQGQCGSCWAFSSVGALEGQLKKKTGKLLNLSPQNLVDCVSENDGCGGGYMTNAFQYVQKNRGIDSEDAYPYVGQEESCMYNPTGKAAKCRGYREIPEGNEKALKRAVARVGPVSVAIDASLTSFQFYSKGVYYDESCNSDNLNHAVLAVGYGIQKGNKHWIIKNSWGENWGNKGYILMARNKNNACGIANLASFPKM
Protocol: All assays for cathepsin K were carried out with human and rat recombinant enzyme. Assays for cathepsins S & V were also carried out with human recombinant enzyme. Assays for human cathepsins B, H, and L were carried out with enzyme, purchased from Athens Research and Technology, Inc., prepared from human liver tissue. […] A stock substrate solution of Cbz-Phe-Arg-AMC was prepared at a concentration of 50 mM in dimethyl sulfoxide. This substrate was diluted into the assay for a final substrate concentration of 10 μM in the rat cathepsin K, human cathepsin K, and human cathepsin B assays; a final substrate concentration of 5 μM in the human cathepsin L assay; and a final substrate concentration of 2 μM in the human cathepsin V assay.
All assays contained 10% dimethyl sulfoxide. […] All assays were conducted at 30° C. Product fluorescence (excitation at 360 nm; emission at 440 nm, (except cathepsin H which used excitation at 340 nm; emission at 420 nm)) was monitored with a PerSeptive Biosystems Cytofluor II fluorescence plate reader. Product progress curves were generated over 2.3 h monitoring the formation of 7-amino-4-methylcoumarin product (or β-naphthalamide for cathepsin H).
Two liters of Spodoptera frugiperda (Sf-9) cells (ATCC) were grown in Grace's Supplemented medium (Life Technologies) supplemented with 2 g/L glucose, 10% fetal bovine serum (HyClone) and 0.1% pluronic F-68 (Life Technologies). […] The cells continued to grow for 72 h post-infection, before the virus was harvested by centrifugation at 1400×g for 30 min.
One and one-half liters of Trichoplusia ni (T. ni) High Five (™) cells [JRH Biosciences, Woodland, Calif. […] Media were separated from cells at a rate of 1 L/min using the Centritech 100 (™) continuous-flow centrifuge (DuPont) operating at 200×g.
Protein Purification: Media (human and rat) were filtered through a Whatman 3 filter, and then loaded onto a 25 mL Poros HS II (26 mm×47 mm) cation exchange column equilibrated in 25 mM sodium acetate at pH 5.5 (equilibration buffer). The column was washed until the absorbance reached the baseline value, and then the protein was eluted with a linear gradient from 0-2 M sodium chloride in the equilibration buffer. Column fractions were analyzed by SDS-PAGE, N-terminal sequencing, and mass spectrometry. Fractions containing the proform of cathepsin K were pooled and frozen at −80° C. The proform was concentrated in an Amicon Centriprep 10 and fractionated with a Superdex 75 column (26 mm×600 mm, Pharmacia) equilibrated in 400 mM sodium chloride, 25 mM sodium acetate at pH 5.5.
Cathepsin K Activation: The proform of cathepsin K was converted to mature cathepsin K by brief exposure to pH 4 in the presence of 5 mM L-cysteine. Typically, 5 mM L-cysteine was added to 10 mL of approximately 1 mg/mL procathepsin K. One mL of this solution was diluted ten-fold into 450 mM sodium acetate at pH 4.0 containing 5 mM L-cysteine. This solution was reacted at 23° C. for 2 min before neutralization with 2 mL 1.8 M sodium acetate at pH 6.0. The neutralized sample was added to the remaining 9 mL of procathepsin K. The mixture was incubated at 4° C. for 2-3 days. The activated cathepsin K was chromatographed on a Poros HS II column as described above.
Potential inhibitors were evaluated using the progress curve method. Assays were carried out in the presence of variable concentrations of test compound. Reactions were initiated by addition of buffered solutions of inhibitor and substrate to enzyme. Data analysis was conducted according to one of two procedures depending on the appearance of the progress curves in the presence of inhibitors. […] Ki values were calculated from IC50 values using equation 2 assuming a competitive model.

Ki (human cathepsin K) [nM]	melting point [°C]	SMILES
1 to 10	96 to 98	CCCC[C@H](NC(=O)OCC1(Cc2ccccc2)CCC1)C(=O)C(=O)N[C@H](C)c1ccccc1 [Example 5, (1-Benzylcyclobutyl)methyl(1S)-1-(oxo{[(1R)-1-phenylethyl]amino}acetyl)pentylcarbamate]
10 to 100	86 to 88	CCCC[C@H](NC(=O)OCC1(CCc2ccccc2)CCC1)C(=O)C(=O)N[C@H](C)c1ccccc1 [Example 6, [1-(2-Phenylethyl)cyclobutyl]methyl(1S)-1-(oxo{[(1R)-1-phenylethyl]amino}acetyl)pentylcarbamate]
10 to 100	91 to 93	CCCC[C@H](NC(=O)OCC1(CCCc2ccccc2)CCC1)C(=O)C(=O)N[C@H](C)c1ccccc1 [Example 7, [1-(3-Phenylpropyl)cyclobutyl]methyl(1S)-1-(oxo{[(1R)-1-phenylethyl]amino}acetyl)pentylcarbamate]
10 to 100	108 to 110	CCCC[C@H](NC(=O)OCC1(Cc2ccccc2)CCCC1)C(=O)C(=O)N[C@H](C)c1ccccc1 [Example 8, (1-Benzylcyclopentyl)methyl(1S)-1-(oxo{[(1R)-1-phenylethyl]amino}acetyl)pentylcarbamate]
10 to 100	–	CCCC[C@H](NC(=O)OCC1(COc2ncnc3ccsc23)CCC1)C(=O)C(=O)N[C@H](C)c1ccccc1 [Example 29, {1-[(thieno[3,2-d]pyrimidin-4-yloxy)methyl]cyclobutyl}methyl (1S)-1-(oxo{[(1R)-1-phenylethyl]amino}acetyl)pentylcarbamate]
100 to 1000	–	CCCC[C@H](NC(=O)OCC1(COc2ncccn2)CCC1)C(=O)C(=O)N[C@H](C)c1ccccc1 [Example 30, {1-[(2-pyrimidinyloxy)methyl]cyclobutyl}methyl (1S)-1-(oxo {[(1R)-1-phenylethyl]amino}acetyl)pentylcarbamate]

Second part, the compound before the results:

SMILES	Ki (human cathepsin K) [nM]	melting point [°C]
CCCC[C@H](NC(=O)OCC1(COc2nc(-c3ccc(C)cc3)cs2)CCC1)C(=O)C(=O)N[C@H](C)c1ccccc1 [Example 31, [1-({[4-(4-methylphenyl)-1,3-thiazol-2-yl]oxy}methyl)cyclobutyl]methyl (1S)-1-(oxo{[(1R)-1-phenylethyl]amino}acetyl)pentylcarbamate]	100 to 1000	–
CCCC[C@H](NC(=O)OCC1(CSc2nccc(-c3ccc(Cl)cc3)n2)CCC1)C(=O)C(=O)N[C@H](C)c1ccccc1 [Example 33, [1-({[4-(4-chloro phenyl)-2-pyrimidinyl]sulfanyl}methyl)cyclobutyl]methyl (1S)-1-(oxo{[(1R)-1-phenylethyl]amino}acetyl)pentylcarbamate]	1 to 10	–
CCCC[C@H](NC(=O)OCC1(CSc2ncc(-c3ccc(Cl)cc3)n2C)CCC1)C(=O)C(=O)N[C@H](C)c1ccccc1 [Example 34, [1-({[5-(4-chlorophenyl)-1-methyl-1H-imidazol-2-yl]sulfanyl}methyl)cyclobutyl]methyl (1S)-1-(oxo{[(1R)-1-phenylethyl]amino}acetyl)pentylcarbamate]	100 to 1000	–
CCCC[C@H](NC(=O)OCC1(CCSc2nccn2C)CCC1)C(=O)C(=O)N[C@H](C)c1ccccc1 [Example 36, (1-{2-[(1-methyl-1H-imidazol-2-yl)sulfanyl]ethyl}cyclobutyl)methyl (1S)-1-(oxo{[(1R)-1-phenylethyl]amino}acetyl)pentylcarbamate]	> 1000	–
CCCC[C@H](NC(=O)OCC1(CCCSc2nccn2C)CCC1)C(=O)C(=O)N[C@H](C)c1ccccc1 [Example 37, (1-{3-[(1-methyl-1H-imidazol-2-yl)sulfanyl]propyl}cyclobutyl)methyl (1S)-1-(oxo{[(1R)-1-phenylethyl]amino}acetyl)pentylcarbamate]	> 1000	–
CCCC[C@H](NC(=O)OCC1(CCCOc2ccnc(Cl)n2)CCC1)C(=O)C(=O)N[C@H](C)c1ccccc1 [Example 38, (1-{3-[(2-chloro-4-pyrimidinyl)oxy]propyl}cyclobutyl)methyl (1S)-1-(oxo{[(1R)-1-phenylethyl]amino}acetyl)pentylcarbamate]	> 1000	–
